From PubChem BioAssay (NCI)
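GI50 marks 50% less growth. Definition used: TGI = concentration required for complete inhibition of growth.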

Experiments:
Assay in all cases: NCI anticancer screen, dose series, 384-well format
KM12 colon = system: KM12 colon
RXF 393 renal = system: RXF 393 renal
PC-3 prostate = system: PC-3 prostate
SK-OV-3 ovarian = system: SK-OV-3 ovarian
SF-268 CNS = system: SF-268 CNS
MALME-3M melanoma = system: MALME-3M melanoma
SK-MEL-28 melanoma = system: SK-MEL-28 melanoma
HS 578T breast = system: HS 578T breast
SW-620 colon = system: SW-620 colon
UACC-62 melanoma = system: UACC-62 melanoma
HCT-15 colon = system: HCT-15 colon
UACC-257 melanoma = system: UACC-257 melanoma
SF-539 CNS = system: SF-539 CNS
OVCAR-4 ovarian = system: OVCAR-4 ovarian
MCF7 breast = system: MCF7 breast
DU-145 prostate = system: DU-145 prostate
HCC-2998 colon = system: HCC-2998 colon
NCI-H23 lung = system: NCI-H23 lung
NCI-H226 lung = system: NCI-H226 lung
RPMI-8226 leukemia = system: RPMI-8226 leukemia
MOLT-4 leukemia = system: MOLT-4 leukemia
CCRF-CEM leukemia = system: CCRF-CEM leukemia
MDA-MB-435 melanoma = system: MDA-MB-435 melanoma
IGROV1 ovarian = system: IGROV1 ovarian
OVCAR-3 ovarian = system: OVCAR-3 ovarian
NCI-H460 NSCLC = system: NCI-H460 NSCLC
BT-549 breast = system: BT-549 breast
HL-60(TB) leukemia = system: HL-60(TB) leukemia
UO-31 renal = system: UO-31 renal
HT29 colon = system: HT29 colon
SR leukemia = system: SR leukemia
HCT-116 colon = system: HCT-116 colon
EKVX NSCLC = system: EKVX NSCLC
SNB-75 CNS = system: SNB-75 CNS
HOP-92 NSCLC = system: HOP-92 NSCLC
OVCAR-8 ovarian = system: OVCAR-8 ovarian
COLO 205 colon = system: COLO 205 colon
MDA-MB-468 breast = system: MDA-MB-468 breast
NCI-H322M lung = system: NCI-H322M lung
SN12C renal = system: SN12C renal
TK-10 renal = system: TK-10 renal
U251 glioblastoma = system: U251 glioblastoma
ACHN renal = system: ACHN renal
SK-MEL-5 melanoma = system: SK-MEL-5 melanoma
K-562 leukemia = system: K-562 leukemia
SF-295 CNS = system: SF-295 CNS
HOP-62 NSCLC = system: HOP-62 NSCLC
CAKI-1 renal = system: CAKI-1 renal
SNB-19 CNS = system: SNB-19 CNS
MDA-MB-231 breast = system: MDA-MB-231 breast
M14 melanoma = system: M14 melanoma
NCI-H522 lung = system: NCI-H522 lung
786-0 renal = system: 786-0 renal
LOX IMVI melanoma = system: LOX IMVI melanoma
A498 renal = system: A498 renal
T-47D breast = system: T-47D breast
NCI/ADR-RES ovarian = system: NCI/ADR-RES ovarian
A549 NSCLC = system: A549 NSCLC

## C[C@@H]1COCCN1c1cc(C2([S@](C)(=N)=O)CC2)nc(-c2ccnc3[nH]ccc23)n1
KM12 colon
  GI50: 0.734 µM
  TGI: 16.5 µM
RXF 393 renal
  GI50: 1.28 µM
  TGI: 3.93 µM
PC-3 prostate
  GI50: 6.97 µM
  TGI: > 100 µM
SK-OV-3 ovarian
  GI50: 1.59 µM
  TGI: 10.5 µM
SF-268 CNS
  GI50: 3.35 µM
  TGI: 46.3 µM
MALME-3M melanoma
  GI50: 3.87 µM
  TGI: 18 µM
SK-MEL-28 melanoma
  GI50: 18.3 µM
  TGI: 81.8 µM
HS 578T breast
  GI50: 0.336 µM
  TGI: 1.72 µM
SW-620 colon
  GI50: 4.88 µM
  TGI: > 100 µM
UACC-62 melanoma
  GI50: 2.43 µM
  TGI: 36.8 µM
HCT-15 colon
  GI50: 1.9 µM
  TGI: 56.1 µM
UACC-257 melanoma
  GI50: 22.4 µM
  TGI: > 100 µM
SF-539 CNS
  GI50: 0.64 µM
  TGI: 2.69 µM
OVCAR-4 ovarian
  GI50: 2.03 µM
  TGI: 31 µM
MCF7 breast
  GI50: 0.431 µM
  TGI: > 100 µM
DU-145 prostate
  GI50: 2.8 µM
  TGI: > 100 µM
HCC-2998 colon
  GI50: 0.231 µM
  TGI: 1.6 µM
NCI-H23 lung
  GI50: 0.792 µM
  TGI: 2.4 µM
NCI-H226 lung
  GI50: 16.3 µM
  TGI: 59.3 µM
RPMI-8226 leukemia
  GI50: 0.694 µM
  TGI: 2.26 µM
MOLT-4 leukemia
  GI50: 0.342 µM
  TGI: 1.52 µM
CCRF-CEM leukemia
  GI50: 0.337 µM
  TGI: 1.4 µM
MDA-MB-435 melanoma
  GI50: 3.46 µM
  TGI: > 100 µM
IGROV1 ovarian
  GI50: 1.87 µM
  TGI: 21.6 µM
OVCAR-3 ovarian
  GI50: 1.94 µM
  TGI: 23.8 µM
NCI-H460 NSCLC
  GI50: 0.455 µM
  TGI: 8.99 µM
BT-549 breast
  GI50: 0.573 µM
  TGI: 3.51 µM
HL-60(TB) leukemia
  GI50: 0.666 µM
  TGI: 1.91 µM
UO-31 renal
  GI50: 2.82 µM
  TGI: 25.5 µM
HT29 colon
  GI50: 3.17 µM
  TGI: 9.92 µM
SR leukemia
  GI50: 0.0322 µM
  TGI: 0.125 µM
HCT-116 colon
  GI50: 1.39 µM
  TGI: 14.6 µM
EKVX NSCLC
  GI50: 6.53 µM
  TGI: 59.9 µM
SNB-75 CNS
  GI50: 3.51 µM
  TGI: > 100 µM
HOP-92 NSCLC
  GI50: 1.16 µM
  TGI: 6.77 µM
OVCAR-8 ovarian
  GI50: 3.77 µM
  TGI: 16.3 µM
COLO 205 colon
  GI50: 7.72 µM
  TGI: 83.7 µM
MDA-MB-468 breast
  GI50: 2.9 µM
  TGI: 15.5 µM
NCI-H322M lung
  GI50: 0.815 µM
  TGI: 4.99 µM
SN12C renal
  GI50: 4.38 µM
  TGI: 55.9 µM
TK-10 renal
  GI50: 0.412 µM
  TGI: 2.42 µM
U251 glioblastoma
  GI50: 3 µM
  TGI: 41.8 µM
ACHN renal
  GI50: 0.826 µM
  TGI: 6.37 µM
SK-MEL-5 melanoma
  GI50: 5.24 µM
  TGI: 18.7 µM
K-562 leukemia
  GI50: 1.63 µM
  TGI: 3.7 µM
SF-295 CNS
  GI50: 1.97 µM
  TGI: 7.74 µM
HOP-62 NSCLC
  GI50: 1.1 µM
  TGI: 4.39 µM
CAKI-1 renal
  GI50: 2.74 µM
  TGI: 22.8 µM
SNB-19 CNS
  GI50: 4.39 µM
  TGI: 43.4 µM
MDA-MB-231 breast
  GI50: 6.1 µM
  TGI: > 100 µM
M14 melanoma
  GI50: 0.896 µM
  TGI: 3.26 µM
NCI-H522 lung
  GI50: 12.8 µM
  TGI: 81.6 µM
786-0 renal
  GI50: 0.718 µM
  TGI: 4.25 µM
LOX IMVI melanoma
  GI50: 2.34 µM
  TGI: 12.6 µM
A498 renal
  GI50: 0.398 µM
  TGI: 1.95 µM
T-47D breast
  GI50: 18.7 µM
  TGI: > 100 µM
NCI/ADR-RES ovarian
  GI50: 25.4 µM
  TGI: > 100 µM
A549 NSCLC
  GI50: 3.1 µM
  TGI: 21.2 µM
